Tested on: 967376-340-R-J2-PDC multicell spheroid viability
Experiment: Anticancer human tumor 967376-340-R-J2-PDC patient-derived colon adenocarcinoma cell line growth inhibition [PI3K]
Details: for IC50: curve of first compound; for viability, T/C: stronger effect = lower value
Procedure, shortened: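 Three cell types, namely tumor cells, endothelial cells and mesenchymal stem cells, formed each spheroid. Combinations with four PI3K inhibitors were screened at clinically achievable concentrations decreasing by half-log, and spheroid viability was recorded.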

[1] = second compound 0.0316 µM, first compound 0.0316 µM
[2] = second compound 0.0316 µM, first compound 0.1 µM
[3] = second compound 0.0316 µM, first compound 0.316 µM
[4] = second compound 0.0316 µM, first compound 1 µM
[5] = second compound 0.0316 µM, first compound 3.16 µM
[6] = second compound 0.0316 µM, first compound 10 µM
[7] = second compound 0.1 µM, first compound 0.0316 µM
[8] = second compound 0.1 µM, first compound 0.1 µM
[9] = second compound 0.1 µM, first compound 0.316 µM
[10] = second compound 0.1 µM, first compound 1 µM
[11] = second compound 0.1 µM, first compound 3.16 µM
[12] = second compound 0.1 µM, first compound 10 µM
[13] = second compound 0.316 µM, first compound 0.0316 µM
[14] = second compound 0.316 µM, first compound 0.1 µM
[15] = second compound 0.316 µM, first compound 0.316 µM
[16] = second compound 0.316 µM, first compound 1 µM
[17] = second compound 0.316 µM, first compound 3.16 µM
[18] = second compound 0.316 µM, first compound 10 µM
[19] = second compound 1 µM, first compound 0.0316 µM
[20] = second compound 1 µM, first compound 0.1 µM
[21] = second compound 1 µM, first compound 0.316 µM
[22] = second compound 1 µM, first compound 1 µM
[23] = second compound 1 µM, first compound 3.16 µM
[24] = second compound 1 µM, first compound 10 µM
[25] = second compound 3.16 µM, first compound 0.0316 µM
[26] = second compound 3.16 µM, first compound 0.1 µM
[27] = second compound 3.16 µM, first compound 0.316 µM
[28] = second compound 3.16 µM, first compound 1 µM
[29] = second compound 3.16 µM, first compound 3.16 µM
[30] = second compound 3.16 µM, first compound 10 µM
[31] = second compound 10 µM, first compound 0.0316 µM
[32] = second compound 10 µM, first compound 0.1 µM
[33] = second compound 10 µM, first compound 0.316 µM
[34] = second compound 10 µM, first compound 1 µM
[35] = second compound 10 µM, first compound 3.16 µM
[36] = second compound 10 µM, first compound 10 µM
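Further: spheroids exposed to agents for 7 days before read-out.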
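Wherever viability, T/C is given: luminescence used as surrogate of cell viability.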

## Cn1ncc(Cl)c1-c1cc(C(=O)NC(CN)Cc2cccc(F)c2)sc1Cl (stereo unspecified) + Cc1nc(NC(=O)N2CCCC2C(N)=O)sc1-c1ccnc(C(C)(C)C(F)(F)F)c1
Second compound 0.0316 µM
  IC50: > 10 µM
Second compound 0.1 µM
  IC50: 7.44 µM
Second compound 0.316 µM
  IC50: > 10 µM
Second compound 1 µM
  IC50: 4.6 µM
Second compound 3.16 µM
  IC50: 5.42 µM
Second compound 10 µM
  IC50: 0.366 µM
[1]
  viability, T/C: 108%
[2]
  viability, T/C: 79%
[3]
  viability, T/C: 77.8%
[4]
  viability, T/C: 72.3%
[5]
  viability, T/C: 61.3%
[6]
  viability, T/C: 71.4%
[7]
  viability, T/C: 75.6%
[8]
  viability, T/C: 91%
[9]
  viability, T/C: 76.5%
[10]
  viability, T/C: 82.6%
[11]
  viability, T/C: 75.2%
[12]
  viability, T/C: 41.1%
[13]
  viability, T/C: 72.8%
[14]
  viability, T/C: 82%
[15]
  viability, T/C: 78.1%
[16]
  viability, T/C: 89.6%
[17]
  viability, T/C: 61.6%
[18]
  viability, T/C: 59.9%
[19]
  viability, T/C: 62.2%
[20]
  viability, T/C: 83.4%
[21]
  viability, T/C: 60.5%
[22]
  viability, T/C: 65%
[23]
  viability, T/C: 55.3%
[24]
  viability, T/C: 38.9%
[25]
  viability, T/C: 52.2%
[26]
  viability, T/C: 55.9%
[27]
  viability, T/C: 53.2%
[28]
  viability, T/C: 61.3%
[29]
  viability, T/C: 52%
[30]
  viability, T/C: 42.4%
[31]
  viability, T/C: 60.4%
[32]
  viability, T/C: 55.6%
[33]
  viability, T/C: 51.2%
[34]
  viability, T/C: 40.8%
[35]
  viability, T/C: 46.7%
[36]
  viability, T/C: 32.8%

## Cn1nccc1Nc1nccc(-c2ccn(C(CO)c3ccc(Cl)c(F)c3)c(=O)c2)n1 (stereo unspecified) + Cc1nc(NC(=O)N2CCCC2C(N)=O)sc1-c1ccnc(C(C)(C)C(F)(F)F)c1
Second compound 0.0316 µM
  IC50: > 10 µM
Second compound 0.1 µM
  IC50: > 10 µM
Second compound 0.316 µM
  IC50: > 10 µM
Second compound 1 µM
  IC50: > 10 µM
Second compound 3.16 µM
  IC50: > 10 µM
Second compound 10 µM
  IC50: < 0.0316 µM
[1]
  viability, T/C: 66.3%
[2]
  viability, T/C: 104%
[3]
  viability, T/C: 97.2%
[4]
  viability, T/C: 83.5%
[5]
  viability, T/C: 87.3%
[6]
  viability, T/C: 85.7%
[7]
  viability, T/C: 70.2%
[8]
  viability, T/C: 67%
[9]
  viability, T/C: 85.1%
[10]
  viability, T/C: 76.7%
[11]
  viability, T/C: 72.4%
[12]
  viability, T/C: 75.5%
[13]
  viability, T/C: 65.4%
[14]
  viability, T/C: 70.9%
[15]
  viability, T/C: 63.8%
[16]
  viability, T/C: 82%
[17]
  viability, T/C: 84.2%
[18]
  viability, T/C: 60.7%
[19]
  viability, T/C: 66.6%
[20]
  viability, T/C: 61%
[21]
  viability, T/C: 60.1%
[22]
  viability, T/C: 67.8%
[23]
  viability, T/C: 64.7%
[24]
  viability, T/C: 53.5%
[25]
  viability, T/C: 46.1%
[26]
  viability, T/C: 61.4%
[27]
  viability, T/C: 56.3%
[28]
  viability, T/C: 58.5%
[29]
  viability, T/C: 60.8%
[30]
  viability, T/C: 77.1%
[31]
  viability, T/C: 39.9%
[32]
  viability, T/C: 47.6%
[33]
  viability, T/C: 42.2%
[34]
  viability, T/C: 36.1%
[35]
  viability, T/C: 53.7%
[36]
  viability, T/C: 32.3%

## Cn1ncnc1[C@H]1c2n[nH]c(=O)c3cc(F)cc(c23)N[C@@H]1c1ccc(F)cc1 + Cc1nc(NC(=O)N2CCCC2C(N)=O)sc1-c1ccnc(C(C)(C)C(F)(F)F)c1
Second compound 0.0316 µM
  IC50: > 0.1 µM
Second compound 0.1 µM
  IC50: > 0.1 µM
Second compound 0.316 µM
  IC50: > 0.1 µM
Second compound 1 µM
  IC50: > 0.1 µM
Second compound 3.16 µM
  IC50: > 0.1 µM
Second compound 10 µM
  IC50: 0.0218 µM
Second compound 0.0316 µM, first compound 0.000316 µM
  viability, T/C: 85.9%
Second compound 0.0316 µM, first compound 0.001 µM
  viability, T/C: 84.8%
Second compound 0.0316 µM, first compound 0.00316 µM
  viability, T/C: 83%
Second compound 0.0316 µM, first compound 0.01 µM
  viability, T/C: 79.5%
[1]
  viability, T/C: 109%
[2]
  viability, T/C: 86.2%
Second compound 0.1 µM, first compound 0.000316 µM
  viability, T/C: 104%
Second compound 0.1 µM, first compound 0.001 µM
  viability, T/C: 69.8%
Second compound 0.1 µM, first compound 0.00316 µM
  viability, T/C: 77.9%
Second compound 0.1 µM, first compound 0.01 µM
  viability, T/C: 92.8%
[7]
  viability, T/C: 82.6%
[8]
  viability, T/C: 82.1%
Second compound 0.316 µM, first compound 0.000316 µM
  viability, T/C: 70.7%
Second compound 0.316 µM, first compound 0.001 µM
  viability, T/C: 69%
Second compound 0.316 µM, first compound 0.00316 µM
  viability, T/C: 50.6%
Second compound 0.316 µM, first compound 0.01 µM
  viability, T/C: 76.6%
[13]
  viability, T/C: 71.3%
[14]
  viability, T/C: 67.8%
Second compound 1 µM, first compound 0.000316 µM
  viability, T/C: 58.9%
Second compound 1 µM, first compound 0.001 µM
  viability, T/C: 71.8%
Second compound 1 µM, first compound 0.00316 µM
  viability, T/C: 71.8%
Second compound 1 µM, first compound 0.01 µM
  viability, T/C: 67%
[19]
  viability, T/C: 55.1%
[20]
  viability, T/C: 60.3%
Second compound 3.16 µM, first compound 0.000316 µM
  viability, T/C: 51%
Second compound 3.16 µM, first compound 0.001 µM
  viability, T/C: 65.9%
Second compound 3.16 µM, first compound 0.00316 µM
  viability, T/C: 65.5%
Second compound 3.16 µM, first compound 0.01 µM
  viability, T/C: 68.9%
[25]
  viability, T/C: 62.4%
[26]
  viability, T/C: 56%
Second compound 10 µM, first compound 0.000316 µM
  viability, T/C: 48.2%
Second compound 10 µM, first compound 0.001 µM
  viability, T/C: 71.1%
Second compound 10 µM, first compound 0.00316 µM
  viability, T/C: 51.5%
Second compound 10 µM, first compound 0.01 µM
  viability, T/C: 38.8%
[31]
  viability, T/C: 50.8%
[32]
  viability, T/C: 51.7%

— PubChem BioAssay AID1963962 (Molecular Pharmacology Branch, DTP, NCI, 2024)
